Experimental data from patent publication US12479940B2, “Amide compound, polymerizable composition, cured material, and method of manufacturing cured material” (ADEKA CORPORATION, priority 2019, dated 2025).

Excerpt: As the polymerization initiator (the water-soluble polymerization initiator), N,N-bis(2-hydroxyethyl)butane-1-aminium=phenyl(2,4,6-trimethylbenzoyl)phosphinate represented by A3, 1-[4-(2-hydroxyethoxy)phenyl]-2-hydroxy-2-methyl-1-propan-1-one represented by A32, and N,N-bis(2-hydroxyethyl)butane-1-aminium=9-oxo-9H thioxanthene-4-carboxylate represented by A57 were used.

solubility in water | SMILES
≥ 1 mass % | Cc1cc(C)c(C(=O)P(=O)(O)c2ccccc2)c(C)c1 [A3, N,N-bis(2-hydroxyethyl)butane-1-aminium=phenyl(2,4,6-trimethylbenzoyl)phosphinate]
≥ 1 mass % | CC(C)(O)C(=O)c1ccc(OCCO)cc1 [A32, 1-[4-(2-hydroxyethoxy)phenyl]-2-hydroxy-2-methyl-1-propan-1-one]
